In patent publication US20120157401A1, “METHODS FOR TREATING NEUROFIBROMATOSIS” (PTC Therapeutics, Inc., priority 2009, published 2012):

Key:
[1] = system: human VEGF121 and VEGF165; experiment: HT1080 xenograft time course: pathologic plasma human VEGF; format: in vivo
Description: Experimental Design. HT1080 cells (5×10^6 cells/mouse) were implanted subcutaneously in male athymic nude mice.
Tumor size was measured by calipers immediately pre-treatment and at the time of sacrifice on Day 1, 2, or 3 (5 mice per group per day). At sacrifice, the plasma was collected for assay of pathologic human VEGF concentration using an ELISA that recognizes human VEGF121 and VEGF165 (as described in Section 9.1.1.1).

[2] = Oral pharmacokinetics / toxicokinetics in rats; format: in vivo, Sprague Dawley rats
Description: The pharmacokinetic evaluations in mice were adjuncts to the primary pharmacodynamic xenograft studies. The evaluations in rats included toxicokinetic assessments in single-dose, 7-day, and 28-day toxicology studies as well as a mass-balance study after a single oral dose of ^14C-Compound #10. The evaluations in dogs included toxicokinetic assessments in 7-day and 28-day toxicology studies. In the studies performed, rodents were dosed once daily with Compound #10 formulated in vehicle and administered via oral gavage.

[3] = 28-day oral toxicity study in rats (14-day recovery); format: in vivo
Description: A battery of genotoxicity studies was also performed. […] The L23 vehicle was used.
Exposures were maximal at 120 mg/kg/day.

COc1ccc(C2c3[nH]c4ccc(Cl)cc4c3CCN2C(=O)Oc2ccc(Cl)cc2)cc1 (racemic) [Compound #10]
Course of pathologic plasma human VEGF concentrations ([1]; Days 2 and 3): continued to decline | Pathologic plasma human VEGF levels vs control animals ([1]; by Day 1): numerically lower than in control animals | Oral bioavailability [2]: orally bioavailable | NOAEL for 28-days [3]: 12 mg/kg/day | Dose of maximal exposures ([3]; 28-day oral gavage): 120 mg/kg/day | Adrenal weights ([3]; 28-day, all dose levels): Increased
